Test results: ChEMBL document CHEMBL4411295, “Discovery of novel nonsteroidal VDR agonists with novel diarylmethane skeleton for the treatment of breast cancer” (Eur J Med Chem, 2019)
The source made the active and inactive calls. The calls are words filed in the database; no cut-off is given here.

What was measured:
MCF7 [1] = assay: Induction of apoptosis in human MCF7 cells assessed as reduction in Bcl2 expression at 0.5 uM after 24 hrs by qPCR analysis; type: functional, cell-based
MCF7 [2] = assay: Induction of apoptosis in human MCF7 cells assessed as reduction in Bcl2 level at 0.5 uM after 24 hrs by Western blot analysis; type: functional, cell-based
[3] = biological target: T1, Vitamin D3 receptor (Homo sapiens) (UniProt P11473); assay: Binding affinity at VDR (unknown origin) assessed as relative VDR-probe inhibition at 1 uM by fluorescence polarization assay relative to 1,25(OH)2D3
T1 sequence (whole entry): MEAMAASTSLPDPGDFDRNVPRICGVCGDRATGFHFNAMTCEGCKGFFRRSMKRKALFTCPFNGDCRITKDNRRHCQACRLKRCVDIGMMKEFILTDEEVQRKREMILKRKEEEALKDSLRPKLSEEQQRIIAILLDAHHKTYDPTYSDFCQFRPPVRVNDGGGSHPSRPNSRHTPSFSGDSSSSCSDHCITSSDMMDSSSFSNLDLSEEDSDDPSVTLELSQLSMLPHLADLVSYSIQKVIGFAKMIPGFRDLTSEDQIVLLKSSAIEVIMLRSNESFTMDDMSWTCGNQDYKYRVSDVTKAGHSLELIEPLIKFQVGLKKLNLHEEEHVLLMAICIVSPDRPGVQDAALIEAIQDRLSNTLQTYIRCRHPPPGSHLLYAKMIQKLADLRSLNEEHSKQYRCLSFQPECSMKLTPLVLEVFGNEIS

MCF7 [4] = assay: Induction of apoptosis in human MCF7 cells assessed as increase in p21 level at 0.5 uM after 24 hrs by Western blot analysis; type: functional, cell-based
MCF7 [5] = assay: Induction of apoptosis in human MCF7 cells assessed as increase in Bax level at 0.5 uM after 24 hrs by Western blot analysis; type: functional, cell-based
MCF7 [6] = assay: Induction of apoptosis in human MCF7 cells assessed as increase in Bax expression at 0.5 uM after 24 hrs by qPCR analysis; type: functional, cell-based
MCF7 [7] = assay: Induction of apoptosis in human MCF7 cells assessed as increase in p21 expression at 0.5 uM after 24 hrs by qPCR analysis; type: functional, cell-based
MCF7 [8] = assay: Antiproliferative activity against human MCF7 cells after 24 hrs by MTT assay; type: functional, cell-based; conditions: MCF7, 24 h
Mus musculus = assay: Hypercalcemic effect in BALB/C nude mouse xenografted with human MCF7 cells at 0.5 ug/kg, ip administered 3 times per week measured after 15 days; type: ADME, organism-based; conditions: in vivo, 0.0005 mg/kg, 360 h
MCF7 [9] = assay: Cell cycle arrest in human MCF7 cells assessed as accumulation at G2/M phase at 1 uM after 24 hrs by propidium iodide staining based flow cytometric analysis (reference value: 12.04%); type: functional
MCF7 [10] = assay: Induction of apoptosis in human MCF7 cells assessed as viable cells at 1 uM after 48 hrs by Annexin V-FITC/propidium iodide staining-based flow cytometric analysis (reference value: 94.3%); type: functional; conditions: MCF7, 48 h, read-out: Activity
MCF7 [11] = assay: Induction of apoptosis in human MCF7 cells assessed as necrotic cells at 1 uM after 48 hrs by Annexin V-FITC/propidium iodide staining-based flow cytometric analysis (reference value: 0.29%); type: functional
MCF7 [12] = assay: Cell cycle arrest in human MCF7 cells assessed as accumulation at G0/G1 phase at 1 uM after 24 hrs by propidium iodide staining based flow cytometric analysis (reference value: 56.64%); type: functional
MCF7 [13] = assay: Induction of apoptosis in human MCF7 cells assessed as early apoptotic cells at 1 uM after 48 hrs by Annexin V-FITC/propidium iodide staining-based flow cytometric analysis (reference value: 3.80%); type: functional
MCF7 [14] = assay: Cell cycle arrest in human MCF7 cells assessed as accumulation at S phase at 1 uM after 24 hrs by propidium iodide staining based flow cytometric analysis (reference value: 31.32%); type: functional
MCF7 [15] = assay: Induction of apoptosis in human MCF7 cells assessed as late apoptotic cells at 1 uM after 48 hrs by Annexin V-FITC/propidium iodide staining-based flow cytometric analysis (reference value: 1.61%); type: functional
MCF7 [16] = assay: Antitumor activity against human MCF7 cells xenografted in BALB/C nude mouse assessed as reduction in tumor volume at 0.5 ug/kg, ip administered 3 times per week; type: functional, organism-based
MCF7 [17] = assay: Induction of apoptosis in human MCF7 cells at 0.5 uM after 48 hrs by Annexin V-FITC/propidium iodide staining-based flow cytometric analysis; type: functional, cell-based
L02 = assay: Cytotoxicity against human LO2 cells assessed as reduction in cell viability after 24 hrs by MTT assay; type: cell-based; conditions: L02, 24 h

inhibition [3] [%]	SMILES	Activity (MCF7 [1])	Activity (MCF7 [2])	Activity (MCF7 [4])	Activity (MCF7 [5])	Activity (MCF7 [6])	Activity (MCF7 [7])	other results
60.2	CCN(CC)CCNC(=O)c1ccc(C(CC)(CC)c2ccc(C#CC(C)(C)O)c(C)c2)n1CC	Active	Active	Active	Active	Active	Active	–
44.2	CCN(CC)CCNC(=O)c1cc(C(CC)(CC)c2ccc(C#CC3(O)CCCCC3)c(C)c2)cn1CC	–	–	–	–	–	–	IC50 (MCF7 [8]): 3.07 µM
–	C=C1/C(=C\C=C2/CCC[C@]3(C)[C@@H]([C@H](C)CCCC(C)(C)O)CC[C@@H]23)C[C@@H](O)C[C@@H]1O [CALCITRIOL]	–	–	–	–	–	–	Activity (Mus musculus): Toxic; Activity (MCF7 [9]): 4.11%; viability at 1 µM (MCF7 [10]): 81.8%; Activity (MCF7 [11]): 0.4%; Activity (MCF7 [12]): 70.33%; Activity (MCF7 [13]): 14%; Activity (MCF7 [14]): 25.56%; Activity (MCF7 [15]): 3.88%; Activity (MCF7 [16]): inactive
56.3	CCN(CC)CCNC(=O)c1cc(C(CC)(CC)c2ccc(C#CC(C)(C)O)c(C)c2)cn1CC	–	–	–	–	–	–	–
63.4	CCN(CC)CCNC(=O)c1ccc(C(CC)(CC)c2ccc(C#CC(C)(O)CC)c(C)c2)n1CC (configuration not stated)	Active	Active	Active	Active	Active	Active	Activity (MCF7 [17]): Active
59.2	CCN(CC)CCNC(=O)c1cc(C(CC)(CC)c2ccc(C#CC(C)(O)CC)c(C)c2)cn1CC (configuration not stated)	–	–	–	–	–	–	–
–	C=C1/C(=C\C=C2/CCC[C@]3(C)[C@@H]([C@H](C)/C=C/[C@@H](O)C4CC4)CC[C@@H]23)C[C@@H](O)C[C@@H]1O [CALCIPOTRIENE]	–	–	–	–	–	–	Activity (MCF7 [9]): 12.55%; viability at 1 µM (MCF7 [10]): 80.8%; Activity (MCF7 [11]): 0.31%; Activity (MCF7 [12]): 63%; Activity (MCF7 [13]): 15.1%; Activity (MCF7 [14]): 24.45%; Activity (MCF7 [15]): 3.77%
52.1	CCCC(O)(C#Cc1ccc(C(CC)(CC)c2ccc(C(=O)NCCN(CC)CC)n2CC)cc1C)CCC	–	–	–	–	–	–	–
49.3	CCN(CC)CCNC(=O)c1cc(C(CC)(CC)c2ccc(C#CC3(O)CCC3)c(C)c2)cn1CC	Active	Active	Active	Active	Active	Active	IC50 (L02): > 50 µM; IC50 (MCF7 [8]): 1.28 µM
51.1	CCCC(O)(C#Cc1ccc(C(CC)(CC)c2cc(C(=O)NCCN(CC)CC)n(CC)c2)cc1C)CCC	Active	Active	Active	Active	Active	Active	–
